Structures can show the parent of a compound that is named as a salt.
Key:
[1] = test system: isolated rat hepatocytes; assay: Fatty acid and cholesterol synthesis and CO2 production in isolated hepatocytes (Example 23); type: cell-based, Female Charles River rats; details: in words
Method: Female Charles River rats were fasted 48 hr, then meal-fed a 1% corn oil, 70% glucose diet for 7 to 14 days from 8 to 11 a.m. The isolated rat hepatocytes were prepared by perfusing the liver in situ. The hepatocytes were incubated in an oscillating water bath at 37° C. for 60 min. […] All incubations were done in triplicate and all experiments were repeated at least twice. […] The contents of the center well were transferred to scintillation counting fluid and ^14 CO2 content was determined. […] The media was then acidified, extracted with hexane, and the extract counted (to determine the rate of lipogenesis). The conversion of ^3 H2 O and [^14 C]alanine into fatty acids or sterols was determined in a PDS/3, Mark II liquid scintillation counting system.

[2] = Effect on stomach emptying, [14C] glucose load (Example 25); type: in vivo, Rats
Method: Rats were trained to consume a 3 hr 70% glucose meal from 8 a.m. to 11 a.m. daily. On the experimental day, compounds were administered orally by intubation 30 min before a [^14 C] glucose load was given also by intubation. […] Sixty minutes later the rats were killed by decapitation; blood and stomachs were collected on ice.
Data are expressed as follows: dpm×10^3 per ml of serum and dpm×10^3 per stomach.

[3] = 0.33 mmoles/kg oral, 60 min after [14C] glucose load

SMILES: O=C(O)CC(O)(C(=O)O)C(O)C(=O)O (single isomer, unassigned) [hydroxycitric acid, reference compound]
- inhibition of lipid (fatty acid) and cholesterol syntheses [1]: inhibition of fatty acid and cholesterol syntheses
- gastric emptying ([2]; in words, comparable doses): delayed gastric emptying

SMILES: O=C(O)CC(O)(CC(=O)O)C(=O)O [Trisodium Citrate, reference compound]
- Serum, % of control [2, 3]: 112 % of control
- Stomach Contents, % of control [2, 3]: 133 % of control
